Test results from patent US20110224256A1, “T[…] THE TREATMENT OF PSYCHIATRIC DISORDERS” (priority 2008, published 2011).
Where “and” joins values, the source holds several entries; their conditions need not be identical. Equal entries are not always repeated. Structures can show the parent of a compound that is named as a salt.

Tests used:
D2 dopamine receptor = D2 dopamine receptor binding in the striatum by quantitative autoradiography after juvenile methylphenidate; assay type: in vivo, rats; settings: 40 days of age, postnatal day 20-35
Description: FIG. 7. In this study, rats were administered a dosage of 2 mg/kg methylphenidate either by osmotic minipump (continuous release) or twice daily by interperitoneal injection (intermittent) between the ages of postnatal day 20-35. D2 dopamine receptor binding was assessed in the striatum at 40 days of age using quantitative autoradiography (see Andersen et al., Synapse 37:167-169 (2000)).

D3 receptor mRNA = D3 receptor mRNA by Q-PCR after juvenile drug exposure; assay type: in vivo, Sprague-Dawley rats; settings: for reduction in D3 receptor mRNA: MPH 2 mg/kg i.p. twice daily P20-P35, HCl
[1] = tested on: dopamine receptors D1, D2 long, D4 and D5 mRNA; assay: D1, D2 long, D4 and D5 receptor mRNA by Q-PCR after juvenile MPH exposure; assay type: in vivo, Sprague-Dawley rats; settings: MPFCx, 25 days after cessation of MPH, P>0.1
Sprague-Dawley male rats = assay: rCBV by MRI with MION contrast after MPH challenge in adulthood; assay type: in vivo
Description: MRI was conducted in two groups of animals (MPH-treated or VEH treated; n=7) at approximately 60 days old. Functional changes in rCBV were determined by drug-induced alterations following paramagnetic contrast agent […] iron oxide nanocolloid (MION) in anesthetized treated subjects (Chen et al., 2001). All experiments were performed at 2 T or 4.7 T on a GE Omega CSI instrument (GE, Fremont, Calif., USA) using a home-built surface coil for transmit-receive and immobilization of the head using a rigid plastic head holder. All VEH/MPH subjects were matched for scanner strength to control for any possible differences due to magnet strength (Mandeville et al., Magn. Reson. Med., 52:1272-1281 (2004)). […]
According to standard methods, 20 baseline images were collected, followed by a 10 mg/kg injection of MION (an iron particle-based contrast agent that produces long-lasting intravascular contrast for T2* contrast measures) and an additional 20 baseline images. […] Images were measured serially with a temporal resolution of 2 min.
All functional images within each condition were registered onto the same standard brain template to facilitate comparisons between the experimental groups. Registration parameters were determined for each functional scan using a single full-brain image set that is the average of all baseline time points prior to drug injection. […]

## COC(=O)C(c1ccccc1)C1CCCCN1 (stereo not drawn) [MPH, d,l-Methylphenidate HCl]
D2 dopamine receptor; 2 mg/kg by osmotic minipump (continuous release)
  D2 receptor density: but not when administered by continuous release
D2 dopamine receptor; 2 mg/kg twice daily by intraperitoneal injection (intermittent)
  D2 receptor density: reduced significantly
D3 receptor mRNA; MPFCx, assessed at P40
  reduction in D3 receptor mRNA: 28.9±8.3% and 28.9%
D3 receptor mRNA; MPFCx, corrected by GAPDH, juvenile MPH 2 mg/kg or MPH + 0.05 mg/kg Naf, F3,20=8.76, P<0.001
  D3 mRNA levels in the place-conditioned animals: significantly changed
D3 receptor mRNA; MPFCx, relative to VEH controls, 25 days post-exposure (P60)
  reduction in D3 receptor mRNA: 23.8±6.7% and 23.8%
D3 receptor mRNA; accumbens or striatum, MPH-exposed, P>0.5
  D3 mRNA change: did not change
[1]
  changes in other dopamine receptor subtype mRNA (D1, D2 long, D4, D5): No other significant changes
Sprague-Dawley male rats; MPFCx, juvenile MPH 2 mg/kg twice daily P20-P35 vs VEH-treated, 2 mg/kg i.v. MPH challenge
  rCBV change after MPH challenge in adulthood: significantly increased
Sprague-Dawley male rats; dorsolateral PFCx or caudate putamen, juvenile MPH exposure
  enduring effects of juvenile exposure on rCBV: no significant enduring effects
